Earlier results on one compound are cited in patent US20080247985A1, “Composition base containing solubilized allantoin and urea for topical preparations” (priority 2007, published 2008).

SMILES strings stand for the structures.

For the series the following is noted: water at 25 °C.

With `NC(=O)NC1NC(=O)NC1=O` (stereo not shown) [allantoin, (2,5-dioxo-4-imidazolidinyl) urea], the Solubility in water is given as 0.45%.
